In US12215354B2, “Differentiation of human embryonic stem cells into single hormonal insulin positive cells” (Janssen Biotech, Inc., priority 2011, dated 2025):

System: human embryonic stem cell line H1
Assay: Real-time PCR gene expression, ascorbic acid at stages 3-5 (Example 11)
Format: cell-based
Settings: at stages 4-5
Description: Cells of the human embryonic stem cell line H1 at various passages (passage 40 to passage 52) were seeded as single cells at a density of 100,000 cells/cm^2 on MATRIGEL™ (1:30 dilution) coated dishes in mTesr™1 media and 10 μM of Y27632. Forty eight hours post seeding, cultures were differentiated into pancreatic endocrine lineage as follows: • a. Stage 1 (Definitive Endoderm (DE)−3 days): Prior to start of DE, the cultures were washed and incubated with incomplete PBS (no Mg or Ca) for 30 seconds followed by addition of the stage 1 media. Human embryonic stem cells cultured as single cells on MATRIGEL™-coated dishes were treated with MCDB-131 medium supplemented with 0.1% fatty acid-free BSA, 0.0012 g/ml sodium bicarbonate, 1× GLUTAMAX™, 5 mM D-Glucose, 100 ng/ml GDF8, and 1 μM MCX compound (GSK3B inhibitor) for one day. Cells were then treated with MCDB-131 medium supplemented with 0.1% fatty acid-free BSA, 0.0012 g/ml sodium bicarbonate, 1× GLUTAMAX™, 5 mM glucose, 100 ng/ml GDF8, and 100 nM MCX compound for day two, followed by an additional day in MCDB-131 medium supplemented with 0.1% fatty acid-free BSA, 0.0012 g/ml sodium bicarbonate, 1× GLUTAMAX™, 5 mM Glucose, and 100 ng/ml GDF8. • b. Stage 2 (Primitive gut tube−2 days): Stage 1 cells were treated with MCDB-131 medium supplemented with 0.1% fatty acid-free BSA, 0.0012 g/ml sodium bicarbonate, 1× GLUTAMAX™, 5 mM D-Glucose, and 25 ng/ml FGF7 for two days. • c. Stage 3 (Foregut−2 days): Stage 2 cells were treated with MCDB-131 medium supplemented with 1:200 dilution of ITS-X, 2.5 mM Glucose, 1× GLUTAMAX™, 0.0015 g/ml sodium bicarbonate, 2% fatty acid-free BSA, 10 ng/ml Activin A, 25 ng/ml FGF7, 0.25 μM SANT-1, 1 μM RA, 200 nM TPB (PKC activator), 100 nM LDN-193189 (BMP receptor inhibitor) for one day. Cells were then treated with MCDB-131 medium supplemented with 1:200 dilution of ITS-X, 2.5 mM Glucose, 1× GLUTAMAX™, 0.0015 g/ml sodium bicarbonate, 2% fatty acid-free BSA, 10 ng/ml Activin A, 25 ng/ml FGF7, 0.25 μM SANT-1, 1 μM RA, 200 nM TPB (PKC activator), 10 nM LDN-193189 for an additional day. […]

[1] = ascorbic acid added at stage 3 or at stages 3 and 4

O=C1O[C@H]([C@@H](O)CO)C(O)=C1O [ascorbic acid]
expression of pancreatic endoderm markers PDX-1 and NKX6.1 (0.25 mM ascorbic acid): not significantly altered
expression of insulin [1]: increasing
expression of somatostatin and glucagon [1]: significantly decreased
